Columns and labels:
[1] = tested on: eDHFR-YFP; assay: Time and dose-dependent degradation of YFP in Jurkat-DYL / Jurkat eDHFR-YFP+ cells, flow cytometry; assay type: cell-based, Escherichia coli
Experimental: Likewise, Jurkat eDHFR-YFP (Jurkat^eDHFR-YFP+) cells are seeded in clear (Falcon) 12-well plates (3×10^5 cells/well) in complete media. […]

[2] = tested on: eDHFR-Luc; assay: Degradation of luciferase in HEK293T-DL cells, luminescence; assay type: cell-based, Escherichia coli; settings: 12 and 24 h, varying doses
[3] = tested on: FAP CAR-eDHFR direct fusion (DF); assay: Dose response of surface CAR expression in primary human FAP-eDHFR DF CAR T cells, flow cytometry; assay type: cell-based; settings: for degradation / downregulation of CAR molecules from the surface of CAR T cells: primary human FAP-eDHFR CAR T cells
Experimental: Generated CAR T cells were pelleted, resuspended in 2% BSA in PBS (Invitrogen), and incubated with Alexa Fluor® 647 AffiniPure F(ab′2) fragment goat anti-mouse IgG (Jackson ImmunoResearch Laboratories) for 30 minutes at room temperature. Stained cells were washed 3 times with PBS, and were analyzed on a flow cytometer (LSR II, BD Biosciences) for CAR and/or BFP expression. All flow data were analyzed using FlowJo software (FlowJo).
Following incubation, the cells were washed and stained with Alexa Fluor® 647 AffiniPure F(ab′2) fragment goat anti-mouse IgG (Jackson ImmunoResearch Laboratories) as described under “Flow Cytometry”, and their surface expression was analyzed on a flow cytometer (LSR II, BD Biosciences).
(§1) Data plotted as raw CAR stain fluorescence is shown in the left panel and percent of maximum CAR expression is shown in the right panel.
Values are reported as percent of maximum CAR expression (i.e. relative to CAR T cells that were treated with vehicle control). Each color represents a different donor (n=3).

[4] = tested on: FAP CAR-eDHFR fusion protein; assay: CAR downregulation in Jurkat cells expressing FAP CAR-eDHFR fusion protein, flow cytometry; assay type: cell-based, Escherichia coli; settings: serial time points
Description: as §1

[5] = tested on: eDHFR-YFP; assay: Washout experiment, reversal of YFP degradation in Jurkat eDHFR-YFP+ cells, flow cytometry; assay type: cell-based, Escherichia coli; settings: 100 nM, washout after 24 h
Experimental: Jurkat^eDHFR-YFP+ cells were seeded in a clear (Falcon) 12-well plate (3×10^5 cells/well) in complete media and incubated overnight. The following day, all wells were dosed with 100 nM of 7c, and cells were sampled at 0, 4, 8, 12, and 24 h following incubation (1 well was sampled per time point). Following 24 h incubation, remaining wells of cells were collected and centrifuged (Thermo Scientific Sorvall Legend X1R) at 1200 rpm for 5 minutes. Cells were washed 3 times with PBS and seeded on a new clear (Falcon) 12-well plate in fresh complete media. The cells were sampled at 3, 6, 24, 48, and 72 h following the drug washout. All cells were fixed in 4% PFA following sampling, and all samples from […] were analyzed together on a flow cytometer (BD).

[6] = tested on: FAP CAR-eDHFR direct fusion (DF); assay: Inhibitor test in primary human FAP-eDHFR DF CAR T cells, flow cytometry; assay type: cell-based; settings: primary human FAP-eDHFR DF CAR T cells
Experimental: Following pre-incubation, either 100 nM 7c or vehicle control DMSO (Sigma) was added to the wells, and cells were incubated with the drug for another 4 hours. Following incubation, the cells were washed and their surface CAR expression was assessed on a flow cytometer (BD Biosciences).
Following pre-incubation, the cells were incubated with 100 nM 7c for 4 hours and their CAR expression was assessed on a flow cytometer.

[7] = tested on: IFNγ; assay: Cytokine release assay, IFNγ ELISA of killing assay supernatant; assay type: cell-based, human; settings: for T cell IFNγ release / secretion: supernatant of killing assay, 100 nM compound
Experimental: The concentration of TNF-α and IFN-g in the supernatants following killing assay was determined by ELISA.

COc1cc(Cc2cnc(N)nc2N)cc(OC)c1OCCCC(=O)NCCOCCOCCNc1cccc2c1C(=O)N(C1CCC(=O)NC1=O)C2=O (stereo not drawn) [Compound 7c, 4-(4-((2,4-diaminopyrimidin-5-yl)methyl)-2,6-dimethoxyphenoxy)-N-(2-(2-(2-((2-(2,6-dioxopiperidin-3-yl)-1,3-dioxoisoindolin-4-yl)amino)ethoxy)ethoxy)ethyl)butanamide]
YFP remaining, % of maximum (no drug control) ([1]; Jurkat eDHFR-YFP+, as early as 4 h): 20 % of maximum | degradation of YFP (eDHFR fusion protein) ([1]; Jurkat-DYL, 4, 8 and 18 h incubation, varying doses): degrade eDHFR fusion proteins to low/no functional expression | degradation of luciferase [2]: degraded | CAR expression remaining, percent of maximum CAR expression ([3]; as early as 4 hours post-incubation, relative to vehicle control): 20 % of maximum CAR expression | degradation / downregulation of CAR molecules from the surface of CAR T cells [3]: leads to degradation of CAR molecules from the surface of CAR T cells | degradation / downregulation of CAR molecules from the surface of CAR T cells ([3]; listed as TMP-POM 7c): effectively downregulates CAR in a dose-dependent and reversible manner | degradation of CAR molecules from the surface of Jurkat cells [4]: leads to degradation of CAR molecules from the surface of Jurkat cells | time to full return of YFP expression to baseline following drug washout [5]: approximately 72 h | mechanism of CAR downregulation [6]: proteosome-mediated degradation process | IFNγ secretion across concentrations ([7]; different concentrations, 10:1 E:T): inhibition of CAR T cell signaling | T cell IFNγ release / secretion [7]: inhibits | T cell IFNγ release / secretion ([7]; listed as TMP-POM 7c): inhibition of CAR T cell signaling
